Test results: ChEMBL document CHEMBL1130625, “Synthesis and antibacterial activity of novel 7-(3-substituted-3 or 4-trifluoromethyl-1-pyrrolidinyl)-8-methoxyfluoroquinolones” (1998)
Converted amounts (≈) assume the structure as drawn.

What was measured:
[1] = tested on: Staphylococcus aureus; test: Compound was tested for antibacterial activity against gram positive Staphylococcus aureus smith; assay type: functional
[2] = tested on: Proteus vulgaris; test: Compound was tested for antibacterial activity against gram negative Proteus vulgaris KS-134; assay type: functional
[3] = tested on: Escherichia coli; test: Compound was tested for antibacterial activity against gram negative Escherichia coli ML4707; assay type: functional
[4] = tested on: Klebsiella oxytoca; test: Compound was tested for antibacterial activity against gram negative Klebsiella oxytoca GN 10650; assay type: functional
[5] = tested on: Escherichia coli; test: Compound was tested for antibacterial activity against gram negative Escherichia coli CSH2/RE45; assay type: functional
[6] = tested on: Proteus vulgaris; test: Compound was tested for antibacterial activity against gram negative Proteus vulgaris No.33; assay type: functional
[7] = tested on: Streptococcus pyogenes; test: Compound was tested for antibacterial activity against gram positive Streptococcus pyogenes cook
[8] = tested on: Burkholderia cepacia; test: Compound was tested for antibacterial activity against gram negative Burkholderia cepacia 23; assay type: functional
[9] = tested on: Citrobacter freundii; test: Compound was tested for antibacterial activity against gram negative Citrobacter freundii No.7; assay type: functional
[10] = tested on: Pseudomonas aeruginosa; test: Compound was tested for antibacterial activity against gram negative Pseudomonas aeruginosa K-13; assay type: functional
[11] = tested on: Acinetobacter calcoaceticus; test: Compound was tested for antibacterial activity against gram negative Acinetobacter calcoaceticus No.4; assay type: functional
[12] = tested on: Pseudomonas aeruginosa; test: Compound was tested for antibacterial activity against gram negative Pseudomonas aeruginosa AK109; assay type: functional
[13] = tested on: Escherichia coli; test: Compound was tested for antibacterial activity against gram negative Escherichia coli CSH2/RK1; assay type: functional
[14] = tested on: Enterococcus faecalis; test: Compound was tested for antibacterial activity against gram positive Enterococcus faecalis 1373; assay type: functional
[15] = tested on: Staphylococcus aureus; test: Compound was tested for antibacterial activity against gram positive Staphylococcus aureus KP-90-3; assay type: functional
[16] = tested on: Klebsiella pneumoniae; test: Compound was tested for antibacterial activity against gram negative Klebsiella pneumoniae No.42; assay type: functional
[17] = tested on: Staphylococcus aureus; test: Compound was tested for antibacterial activity against gram positive Staphylococcus aureus FDA 209P JC-1; assay type: functional
[18] = tested on: Klebsiella pneumoniae; test: Compound was tested for antibacterial activity against gram negative Klebsiella pneumoniae KC-1; assay type: functional
[19] = tested on: Citrobacter freundii; test: Compound was tested for antibacterial activity against gram negative Citrobacter freundii KP-29; assay type: functional
[20] = tested on: Pseudomonas aeruginosa; test: Compound was tested for antibacterial activity against gram negative Pseudomonas aeruginosa KP-254; assay type: functional
[21] = tested on: Escherichia coli; test: Compound was tested for antibacterial activity against gram negative Escherichia coli NIHJ JC-2; assay type: functional
[22] = tested on: Serratia marcescens; test: Compound was tested for antibacterial activity against gram negative Serratia marcescens No.16-2; assay type: functional
[23] = tested on: Enterobacter cloacae; test: Compound was tested for antibacterial activity against gram negative Enterobacter cloacae Nek39; assay type: functional
[24] = tested on: Pseudomonas aeruginosa; test: Compound was tested for antibacterial activity against gram negative Pseudomonas aeruginosa PAO1; assay type: functional
[25] = tested on: Proteus mirabilis; test: Compound was tested for antibacterial activity against gram negative Proteus mirabilis JY-10; assay type: functional
[26] = tested on: Staphylococcus aureus; test: Compound was tested for antibacterial activity against gram positive Staphylococcus aureus JS-1; assay type: functional
[27] = Proteus vulgaris, read-out: MIC
[28] = Escherichia coli, read-out: MIC
[29] = Klebsiella oxytoca, read-out: MIC
[30] = Streptococcus pyogenes, read-out: MIC
[31] = Burkholderia cepacia, read-out: MIC
[32] = Citrobacter freundii, read-out: MIC
[33] = Pseudomonas aeruginosa, read-out: MIC
[34] = Acinetobacter calcoaceticus, read-out: MIC
[35] = Enterococcus faecalis, read-out: MIC
[36] = Staphylococcus aureus, read-out: MIC
[37] = Klebsiella pneumoniae, read-out: MIC
[38] = Serratia marcescens, read-out: MIC
[39] = Enterobacter cloacae, read-out: MIC
[40] = Proteus mirabilis, read-out: MIC

SMILES: COc1c(N2C[C@H](CN)[C@H](C(F)(F)F)C2)c(F)cc2c(=O)c(C(=O)O)cn(C3CC3)c12.Cl
- MIC [1]: ≤ 0.006 mg/L
- MIC [2, 27]: 25 mg/L
- MIC [3, 28]: 0.025 mg/L
- MIC [4, 29]: 0.05 mg/L
- MIC [5, 28]: 0.2 mg/L
- MIC [6, 27]: 0.05 mg/L
- MIC [7, 30]: ≤ 0.006 mg/L
- MIC [8, 31]: 1.56 mg/L
- MIC [9, 32]: 0.78 mg/L
- MIC [10, 33]: 3.13 mg/L
- MIC [11, 34]: 0.1 mg/L
- MIC [12, 33]: 0.78 mg/L
- MIC [13, 28]: 0.2 mg/L
- MIC [14, 35]: 0.05 mg/L
- MIC [15, 36]: 0.2 mg/L
- MIC [16, 37]: 0.1 mg/L
- MIC [17, 36]: 0.025 mg/L
- MIC [18, 37]: 0.05 mg/L
- MIC [19, 32]: 6.25 mg/L
- MIC [20, 33]: 50 mg/L
- MIC [21, 28]: 0.05 mg/L
- MIC [22, 38]: 0.78 mg/L
- MIC [23, 39]: 0.39 mg/L
- MIC [24, 33]: 0.78 mg/L
- MIC [25, 40]: 0.025 mg/L
- MIC [26, 36]: ≤ 0.006 mg/L

SMILES: CC1COc2c(N3CCN(C)CC3)c(F)cc3c(=O)c(C(=O)O)cn1c23 (stereo not given) [OFLOXACIN]
- MIC [1]: 0.2 mg/L (≈ 0.553 µM)
- MIC [2, 27]: 50 mg/L (≈ 138 µM)
- MIC [3, 28]: 0.025 mg/L (≈ 0.0692 µM)
- MIC [4, 29]: 0.1 mg/L (≈ 0.277 µM)
- MIC [5, 28]: 0.78 mg/L (≈ 2.16 µM)
- MIC [6, 27]: 0.05 mg/L (≈ 0.138 µM)
- MIC [7, 30]: 0.78 mg/L (≈ 2.16 µM)
- MIC [8, 31]: 3.13 mg/L (≈ 8.66 µM)
- MIC [9, 32]: 0.39 mg/L (≈ 1.08 µM)
- MIC [10, 33]: 12.5 mg/L (≈ 34.6 µM)
- MIC [11, 34]: 0.78 mg/L (≈ 2.16 µM)
- MIC [12, 33]: 1.56 mg/L (≈ 4.32 µM)
- MIC [13, 28]: 0.78 mg/L (≈ 2.16 µM)
- MIC [14, 35]: 1.56 mg/L (≈ 4.32 µM)
- MIC [15, 36]: 25 mg/L (≈ 69.2 µM)
- MIC [16, 37]: 0.2 mg/L (≈ 0.553 µM)
- MIC [17, 36]: 0.39 mg/L (≈ 1.08 µM)
- MIC [18, 37]: 0.05 mg/L (≈ 0.138 µM)
- MIC [19, 32]: 50 mg/L (≈ 138 µM)
- MIC [20, 33]: > 100 mg/L
- MIC [21, 28]: 0.1 mg/L (≈ 0.277 µM)
- MIC [22, 38]: 0.78 mg/L (≈ 2.16 µM)
- MIC [23, 39]: 0.39 mg/L (≈ 1.08 µM)
- MIC [24, 33]: 1.56 mg/L (≈ 4.32 µM)
- MIC [25, 40]: 0.05 mg/L (≈ 0.138 µM)
- MIC [26, 36]: 0.39 mg/L (≈ 1.08 µM)

SMILES: COc1c(N2C[C@H](CO)[C@H](C(F)(F)F)C2)c(F)cc2c(=O)c(C(=O)O)cn(C3CC3)c12
- MIC [1]: ≤ 0.006 mg/L
- MIC [2, 27]: 100 mg/L (≈ 225 µM)
- MIC [3, 28]: 0.2 mg/L (≈ 0.45 µM)
- MIC [4, 29]: 0.78 mg/L (≈ 1.76 µM)
- MIC [5, 28]: 3.13 mg/L (≈ 7.04 µM)
- MIC [6, 27]: 0.39 mg/L (≈ 0.878 µM)
- MIC [7, 30]: 0.05 mg/L (≈ 0.113 µM)
- MIC [8, 31]: 1.56 mg/L (≈ 3.51 µM)
- MIC [9, 32]: 6.25 mg/L (≈ 14.1 µM)
- MIC [10, 33]: 25 mg/L (≈ 56.3 µM)
- MIC [11, 34]: 0.2 mg/L (≈ 0.45 µM)
- MIC [12, 33]: 3.13 mg/L (≈ 7.04 µM)
- MIC [13, 28]: 3.13 mg/L (≈ 7.04 µM)
- MIC [14, 35]: 0.1 mg/L (≈ 0.225 µM)
- MIC [15, 36]: 0.39 mg/L (≈ 0.878 µM)
- MIC [16, 37]: 0.78 mg/L (≈ 1.76 µM)
- MIC [17, 36]: 0.013 mg/L (≈ 0.0293 µM)
- MIC [18, 37]: 0.39 mg/L (≈ 0.878 µM)
- MIC [19, 32]: > 100 mg/L
- MIC [20, 33]: > 100 mg/L
- MIC [21, 28]: 0.39 mg/L (≈ 0.878 µM)
- MIC [22, 38]: 3.13 mg/L (≈ 7.04 µM)
- MIC [23, 39]: 1.56 mg/L (≈ 3.51 µM)
- MIC [24, 33]: 3.13 mg/L (≈ 7.04 µM)
- MIC [25, 40]: 0.1 mg/L (≈ 0.225 µM)
- MIC [26, 36]: ≤ 0.006 mg/L

SMILES: COc1c(N2C[C@@H](N)[C@H](C(F)(F)F)C2)c(F)cc2c(=O)c(C(=O)O)cn(C3CC3)c12.O=C(O)C(F)(F)F
- MIC [1]: 0.05 mg/L
- MIC [2, 27]: 100 mg/L
- MIC [3, 28]: 0.05 mg/L
- MIC [4, 29]: 0.39 mg/L
- MIC [5, 28]: 3.13 mg/L
- MIC [6, 27]: 0.39 mg/L
- MIC [7, 30]: 0.39 mg/L
- MIC [8, 31]: 1.56 mg/L
- MIC [9, 32]: 3.13 mg/L
- MIC [10, 33]: 25 mg/L
- MIC [11, 34]: 0.2 mg/L
- MIC [12, 33]: 6.25 mg/L
- MIC [13, 28]: 3.13 mg/L
- MIC [14, 35]: 0.39 mg/L
- MIC [15, 36]: 3.13 mg/L
- MIC [16, 37]: 0.39 mg/L
- MIC [17, 36]: 0.1 mg/L
- MIC [18, 37]: 0.39 mg/L
- MIC [19, 32]: 100 mg/L
- MIC [20, 33]: > 100 mg/L
- MIC [21, 28]: 0.39 mg/L
- MIC [22, 38]: 3.13 mg/L
- MIC [23, 39]: 3.13 mg/L
- MIC [24, 33]: 3.13 mg/L
- MIC [25, 40]: 0.2 mg/L
- MIC [26, 36]: 0.05 mg/L

SMILES: COc1c(N2CC[C@@](N)(C(F)(F)F)C2)c(F)cc2c(=O)c(C(=O)O)cn(C3CC3)c12.Cl
- MIC [1]: ≤ 0.006 mg/L
- MIC [2, 27]: 100 mg/L
- MIC [3, 28]: ≤ 0.006 mg/L
- MIC [4, 29]: 0.39 mg/L
- MIC [5, 28]: 3.13 mg/L
- MIC [6, 27]: 0.39 mg/L
- MIC [7, 30]: 0.1 mg/L
- MIC [8, 31]: 1.56 mg/L
- MIC [9, 32]: 3.13 mg/L
- MIC [10, 33]: 25 mg/L
- MIC [11, 34]: 0.2 mg/L
- MIC [12, 33]: 6.25 mg/L
- MIC [13, 28]: 3.13 mg/L
- MIC [14, 35]: 0.2 mg/L
- MIC [15, 36]: 1.56 mg/L
- MIC [16, 37]: 0.39 mg/L
- MIC [17, 36]: 0.05 mg/L
- MIC [18, 37]: 0.2 mg/L
- MIC [19, 32]: 100 mg/L
- MIC [20, 33]: > 100 mg/L
- MIC [21, 28]: 0.39 mg/L
- MIC [22, 38]: 3.13 mg/L
- MIC [23, 39]: 1.56 mg/L
- MIC [24, 33]: 6.25 mg/L
- MIC [25, 40]: 0.2 mg/L
- MIC [26, 36]: 0.025 mg/L

SMILES: COc1c(N2C[C@@H](CN)[C@H](C(F)(F)F)C2)c(F)cc2c(=O)c(C(=O)O)cn(C3CC3)c12.Cl
- MIC [2]: 50 mg/L
- MIC [3]: 0.025 mg/L
- MIC [4]: 0.1 mg/L
- MIC [5]: 0.39 mg/L
- MIC [6]: 0.05 mg/L
- MIC [7]: 0.013 mg/L
- MIC [8]: 1.56 mg/L
- MIC [9]: 0.78 mg/L
- MIC [10]: 12.5 mg/L
- MIC [11]: 0.1 mg/L
- MIC [12]: 1.56 mg/L
- MIC [13]: 0.39 mg/L
- MIC [14]: 0.025 mg/L
- MIC [15]: 0.39 mg/L
- MIC [16]: 0.1 mg/L
- MIC [17]: 0.025 mg/L
- MIC [18]: 0.05 mg/L
- MIC [19]: 12.5 mg/L
- MIC [20]: 100 mg/L
- MIC [21]: 0.025 mg/L
- MIC [22]: 0.39 mg/L
- MIC [23]: 0.39 mg/L
- MIC [24]: 1.56 mg/L
- MIC [25]: 0.05 mg/L
- MIC [26]: <0.006 mg/L
